Consider 26 molecules from patent publication US12454529B2, “Piperazine cyclic ureas” (SIRONAX LTD., priority 2020, dated 2025).

One assay deals with HT-29 cells. Kind of assay: HT-29 cell necrosis/necroptosis inhibition (TNF-α + SMAC mimetic + zVAD-FMK; CellTiter-Glo cell viability). The format is cell-based. The conditions noted are these: Homo sapiens; HT-29 cells, TNF-α 10 ng/ml + SMAC mimetic 6 μM + zVAD-FMK 10 μM, 20 hours; geometric mean, 10 points in duplicate; read-out: EC50 (Cell activity; Necrosis/Necroptosis Inhibitory Activity, Compounds 1-142). A digest of the protocol: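 HT-29 cells (~5,000/well) were switched to FBS-free McCOY's 5A holding TNF-α (10 ng/ml), SMAC mimetic (6 μM) and zVAD-FMK (10 μM), then dosed with a 10-point 1:3 series for 20 h at 37 °C. CellTiter-Glo luminescence gave viability; geometric mean EC50 from duplicates.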
(In general: In ATP-based viability assays light output follows the ATP content of the culture.)
Take `N#Cc1cccc([C@@H]2CC=NN2C(=O)N2CCN(c3ncc(F)c(-n4cc(C(N)=O)cn4)n3)CC2)c1` [Compound 109, (S)-1-(2-(4-(5-(3-cyanophenyl)-4,5-dihydro-1H-pyrazole-1-carbonyl)piperazin-1-yl)-5-fluoropyrimidin-4-yl)-1H-pyrazole-4-carboxamide]: the EC50 was in the range of 0.1 to 100 nM.

Take `Cc1nn(CC(N)=O)c(C)c1-c1nc(N2CCN(C(=O)N3N=CC[C@H]3c3cc(F)cc(F)c3)CC2)ncc1F` [Compound 119, (S)-2-(4-(2-(4-(5-(3,5-difluorophenyl)-4,5-dihydro-1H-pyrazole-1-carbonyl)piperazin-1-yl)-5-fluoropyrimidin-4-yl)-3,5-dimethyl-1H-pyrazol-1-yl)acetamide]: the half-maximal effective concentration (EC50) was in the range of 0.1 to 100 nM.

On to `N#Cc1cc(F)cc([C@@H]2CC=NN2C(=O)N2CCN(c3ncc(F)c(-n4ccc(C#N)n4)n3)CC2)c1` [Compound 128, (S)-1-(2-(4-(5-(3-cyano-5-fluorophenyl)-4,5-dihydro-1H-pyrazole-1-carbonyl)piperazin-1-yl)-5-fluoropyrimidin-4-yl)-1H-pyrazole-3-carbonitrile], for which the EC50 was 0.1 to 100 nM.

On to `O=C(N1CCN(c2nccc(-c3cc[nH]n3)n2)CC1)N1N=CC[C@H]1c1cccc(F)c1` [Compound 35, (S)-(4-(4-(1H-pyrazol-3-yl)pyrimidin-2-yl)piperazin-1-yl)(5-(3-fluorophenyl)-4,5-dihydro-1H-pyrazol-1-yl)methanone], for which the EC50 fell in the range of 0.1 to 100 nM.

Regarding `NC(=O)c1cnn(-c2nc(N3CCN(C(=O)N4N=CC[C@H]4c4cccc(F)c4)CC3)ncc2F)c1` [Compound 110, (S)-1-(5-fluoro-2-(4-(5-(3-fluorophenyl)-4,5-dihydro-1H-pyrazole-1-carbonyl)piperazin-1-yl)pyrimidin-4-yl)-1H-pyrazole-4-carboxamide], the EC50 lay within 0.1 to 100 nM.

For `Cc1nn(CC2CC2)c(C)c1-c1nc(N2CCN(C(=O)N3N=CC[C@H]3c3cc(F)cc(F)c3)CC2)ncc1F` [Compound 121, (S)-(4-(4-(1-(cyclopropylmethyl)-3,5-dimethyl-1H-pyrazol-4-yl)fluoropyrimidin-2-yl)piperazin-1-yl)(5-(3,5-difluorophenyl)-4,5-dihydro-1H-pyrazol-1-yl)methanone], the EC50 fell in the range of 0.1 to 100 nM.

As for `N#Cc1cn(-c2ccnc(N3CCN(C(=O)N4N=CC[C@H]4c4cc(F)cc(F)c4)CC3)n2)cn1` [Compound 2, (S)-1-(2-(4-(5-(3,5-difluorophenyl)-4,5-dihydro-1H-pyrazole-1-carbonyl)piperazin-1-yl)pyrimidin-4-yl)-1H-imidazole-4-carbonitrile], the concentration giving a half-maximal response (EC50) fell in the range of 0.1 to 100 nM.

Consider `O=C(N1CCN(c2nccc(-n3nnnc3C(F)(F)F)n2)CC1)N1N=CC[C@H]1c1cccc(F)c1` [Compound 103, (S)-(5-(3-fluorophenyl)-4,5-dihydro-1H-pyrazol-1-yl)(4-(4-(5-(trifluoromethyl)-1H-tetrazol-1-yl)pyrimidin-2-yl)piperazin-1-yl)methanone], for which the EC50 fell in the range of 0.1 to 100 nM.

For `Cn1ncc(-c2nc(N3CCN(C(=O)N4N=CC[C@H]4c4cc(F)cc(C#N)c4)CC3)ncc2F)n1` [Compound 42], the half-maximal effective concentration (EC50) was 0.1 to 100 nM.

Staying with this assay, now noted: Homo sapiens; HT-29 cells, TNF-α 10 ng/ml + SMAC mimetic 6 μM + zVAD-FMK 10 μM, 20 hours; geometric mean, 10 points in duplicate; read-out: EC50 (Cell activity; Necrosis/Necroptosis Inhibitory Activity, Compounds 143-323).
For `CC(=O)Nc1c(C)nn(-c2nc(N3CCN(C(=O)N4N=CC[C@H]4c4cc(F)cc(F)c4)CC3)ncc2F)c1C` [Compound 193, (S)—N-(1-(2-(4-(5-(3,5-difluorophenyl)-4,5-dihydro-1H-pyrazole-1-carbonyl)piperazin-1-yl)-5-fluoropyrimidin-4-yl)-3,5-dimethyl-1H-pyrazol-4-yl)acetamide], the EC50 lay within 0.1 to 100 nM.

As for `Cc1nc(C)n(-c2nc(N3CCN(C(=O)N4N=CCC4c4ncccc4Cl)CC3)ncc2Cl)n1` (centres unmarked) [Compound 220, (4-(5-chloro-4-(3,5-dimethyl-1H-1,2,4-triazol-1-yl)pyrimidin-2-yl)piperazin-1-yl)(5-(3-chloropyridin-2-yl)-4,5-dihydro-1H-pyrazol-1-yl)methanone], the EC50 is 0.1 to 100 nM.

On to `Cc1nc(C(F)F)nn1-c1nc(N2CCN(C(=O)N3N=CC[C@H]3c3cc(F)cc(C#N)c3)CC2)ncc1F` [Compound 245, (S)-3-(1-(4-(4-(3-(difluoromethyl)-5-methyl-1H-1,2,4-triazol-1-yl)-5-fluoropyrimidinyl)piperazine-1-carbonyl)-4,5-dihydro-1H-pyrazol-5-yl)-5-fluorobenzonitrile], for which the EC50 lay within 0.1 to 100 nM.

In the case of `Cc1nc(C(=O)O)nn1-c1nc(N2CCN(C(=O)N3N=CC[C@H]3c3cc(F)cc(C#N)c3)CC2)ncc1F` [Compound 190], the concentration for a half-maximal effect (EC50) is 1000 to 10000 nM.

Take `O=C(N1CCN(c2ncc(F)c(-n3nccc3C(F)(F)F)n2)CC1)N1N=CC[C@H]1c1cc(F)cc(F)c1` [Compound 315, (S)-(5-(3,5-difluorophenyl)-4,5-dihydro-1H-pyrazol-1-yl)(4-(5-fluoro-4-(5-(trifluoromethyl)-1H-pyrazol-1-yl)pyrimidin-2-yl)piperazin-1-yl)methanone]: the half-maximal effective concentration (EC50) is 0.1 to 100 nM.

Turning to `Cc1nc(C2CC=NN2C(=O)N2CCN(c3ncc(F)c(-c4nnc(C)s4)n3)CC2)co1` (centres unmarked) [Compound 209, (4-(5-fluoro-4-(5-methyl-1,3,4-thiadiazol-2-yl)pyrimidin-2-yl)piperazin-1-yl)(5-(2-methyloxazol-4-yl)-4,5-dihydro-1H-pyrazol-1-yl)methanone], the EC50 was in the range of 100 to 1000 nM.

On to `Cc1nnc(-c2nc(N3CCN(C(=O)N4N=CC[C@H]4c4cc(F)cc(F)c4)CC3)ncc2F)n1C` [Compound 178, (S)-(5-(3,5-difluorophenyl)-4,5-dihydro-1H-pyrazol-1-yl)(4-(4-(4,5-dimethyl-4H-1,2,4-triazol-3-yl)-5-fluoropyrimidin-2-yl)piperazin-1-yl)methanone], for which the EC50 is 0.1 to 100 nM.

On to `Cc1nn(-c2ccnc(N3CCN(C(=O)N4N=CC[C@H]4c4cncc(F)c4)CC3)n2)c(C)c1Cl` [Compound 287, (S)-(4-(4-(4-chloro-3,5-dimethyl-1H-pyrazol-1-yl)pyrimidin-2-yl)piperazin-1-yl)(5-(5-fluoropyridin-3-yl)-4,5-dihydro-1H-pyrazol-1-yl)methanone], for which the half-maximal effective concentration (EC50) fell in the range of 0.1 to 100 nM.

`Cn1nc(CF)nc1-c1ccnc(N2CCN(C(=O)N3N=CC[C@H]3c3cc(F)cc(C#N)c3)CC2)n1` [Compound 169, (S)-3-fluoro-5-(1-(4-(4-(3-(fluoromethyl)-1-methyl-1H-1,2,4-triazol-5-yl)pyrimidin-2-yl)piperazine-1-carbonyl)-4,5-dihydro-1H-pyrazol-5-yl)benzonitrile]: the concentration for a half-maximal effect (EC50) is 0.1 to 100 nM.

Consider `Cc1nc(C)n(-c2nc(N3CCN(C(=O)N4N=CCC4c4ncccc4Cl)CC3)ncc2F)n1` (centres unmarked) [Compound 189, (5-(3-chloropyridin-2-yl)-4,5-dihydro-1H-pyrazol-1-yl)(4-(4-(3,5-dimethyl-1H-1,2,4-triazol-1-yl)-5-fluoropyrimidin-2-yl)piperazin-1-yl)methanone], for which the EC50 lay in the range of 0.1 to 100 nM.

Turning to `Cc1nnc(-c2nc(N3CCN(C(=O)N4N=CC[C@H]4c4cncc(F)c4)CC3)ccc2F)s1` [Compound 173, (S)-(4-(5-fluoro-6-(5-methyl-1,3,4-thiadiazol-2-yl)pyridin-2-yl)piperazin-1-yl)(5-(5-fluoropyridin-3-yl)-4,5-dihydro-1H-pyrazol-1-yl)methanone], the EC50 was in the range of 0.1 to 100 nM.

On to `CCn1cnn(-c2nc(N3CCN(C(=O)N4N=CC[C@H]4c4cc(F)cc(C#N)c4)CC3)ncc2F)c1=O` [Compound 200, (S)-3-(1-(4-(4-(4-ethyl-5-oxo-4,5-dihydro-1H-1,2,4-triazol-1-yl)-5-fluoropyrimidin-2-yl)piperazine-1-carbonyl)-4,5-dihydro-1H-pyrazol-5-yl)-5-fluorobenzonitrile], for which the concentration giving a half-maximal response (EC50) lay within 0.1 to 100 nM.

Consider `N#Cc1cc(F)cc([C@@H]2CC=NN2C(=O)N2CCN(c3nc(-n4cc(C#N)cn4)ncc3F)CC2)c1` [Compound 219, (S)-1-(4-(4-(5-(3-cyano-5-fluorophenyl)-4,5-dihydro-1H-pyrazole-1-carbonyl)piperazin-1-yl)-5-fluoropyrimidin-2-yl)-1H-pyrazole-4-carbonitrile], for which the EC50 was 0.1 to 100 nM.

For the molecule `Cc1nc(C)n(-c2nc(N3CCN(C(=O)N4N=CC[C@H]4c4cncc(F)c4)CC3)c(F)cc2F)n1` [Compound 234, (S)-(4-(6-(3,5-dimethyl-1H-1,2,4-triazol-1-yl)-3,5-difluoropyridin-2-yl)piperazin-1-yl)(5-(5-fluoropyridin-3-yl)-4,5-dihydro-1H-pyrazol-1-yl)methanone], the EC50 was in the range of 0.1 to 100 nM.

On to `Cc1nn(-c2nc(N3CCN(C(=O)N4N=CC[C@H]4c4cc(F)cc(C#N)c4)CC3)ncc2F)c(C)c1NC(=O)CC1CC1` [Compound 195, (S)—N-(1-(2-(4-(5-(3-cyano-5-fluorophenyl)-4,5-dihydro-1H-pyrazole-1-carbonyl)piperazin-1-yl)-5-fluoropyrimidin-4-yl)-3,5-dimethyl-1H-pyrazol-4-yl)-2-cyclopropylacetamide], for which the EC50 was in the range of 0.1 to 100 nM.

`N#Cc1cnn(-c2ncc(F)c(N3CCN(C(=O)N4N=CC[C@H]4c4cc(F)cc(F)c4)CC3)n2)c1` [Compound 218, (S)-1-(4-(4-(5-(3,5-difluorophenyl)-4,5-dihydro-1H-pyrazole-1-carbonyl)piperazin-1-yl)-5-fluoropyrimidin-2-yl)-1H-pyrazole-4-carbonitrile]: the EC50 lay in the range of 0.1 to 100 nM.

With `Cc1nc(C)n(-c2ncc(F)c(N3CCN(C(=O)N4N=CC[C@H]4c4cc(F)cc(C#N)c4)CC3)n2)n1` [Compound 258, (S)-3-(1-(4-(2-(3,5-dimethyl-1H-1,2,4-triazol-1-yl)-5-fluoropyrimidin-4-yl)piperazine-1-carbonyl)-4,5-dihydro-1H-pyrazol-5-yl)-5-fluorobenzonitrile], the EC50 was in the range of 0.1 to 100 nM.

As a reminder, the EC50 is the concentration giving half of the maximal effect.
